The values below come from patent US20110072541A1, “MARKER FREE TRANSGENIC PLANTS ENGINEERING THE CHLOROPLAST GENOME WITHOUT THE USE OF ANTIBIOTIC SELECTION” (priority 2000, published 2011).

Each structure is given as a SMILES string. “Also recorded” adds a separate entry of the source. Structures can show the parent of a compound that is named as a salt.

The test system of data set [1] is untransformed N. tabacum Petit Havana leaf discs. As to the kind of experiment: Toxicity of the selection agent to untransformed control leaf discs. Format: cell-based, Nicotiana tabacum. The note with it: for effect on leaf discs under selection: RMOP selection medium. An excerpt:
A. N. tabacum Petit Havana control in RMOP medium containing spectinomycin after 45 days. B. Bombarded leaf discs selected on spectinomycin in RMOP medium after 45 days. C. Spectinomycin resistant clones cultured again ([…]) to obtain homoplasmy. D. Petit Havana control in RMOP medium containing betaine aldehyde after 12 days of culture. E. Bombarded leaf discs selected on betaine aldehyde in RMOP medium after 12 days of culture; arrow indicates unbombarded leaf disc as control. Note that 23 shoots are formed on a disc selected on betain aldehyde against 1-2 shoots per disc on spectinomycin. F. Betaine aldehyde resistant clones cultured again (second round) to obtain homoplasmy. G. Selection on 10 mM betaine aldehyde of untransformed (1) and transgenic (2-4) leaf discs.
(§1) Leaves were placed abaxial side up on Whatman No. 1 filter papers laying on the RMOP medium (Daniell 1993) in standard petri plates (100×15 mm) for bombardment. Microprojectiles were coated with plasmid DNA (pLD-BADH) and bombardments were carried out with the biolistic device PDS 1000/He (Bio-Rad) as described by Daniell (1997). Following bombardment, petri plates were sealed with parafilm and incubated at 24° C. under 16 hour photoperiod. Two days after bombardment, leaves were chopped into small pieces of ˜5 mm^2 in size and placed on the selection medium (RMOP containing 500 μg/ml of spectinomycin dihydrochloride or 5-10 mM betaine aldehyde) with abaxial side touching the medium in deep (100×25 mm) petri plates. The regenerated resistant shoots were chopped into small pieces (˜2 mm^2) and subcloned into fresh deep petri plates containing the same selection medium. Resistant shoots from the second culture cycle were transferred to the rooting medium (MSO medium supplemented with IBA, 1 mg/liter containing appropriate selectable marker). Rooted plants were transferred to soil and grown at 26° C. under 16 hour photoperiod.
(§2) The entire process of regeneration, starting from bombardment until transfer to soil, takes about 3-6 months for spectinomycin selection and 2-3 months for betaine aldehyde selection. FIG. 3 and Table 1 show differences between the two selection processes. […] Leaf disks in FIG. 3 under betaine aldehyde selection appear partially green because they were photographed 12 days after the initiation of the selection process whereas the disc photographed on spectinomycin were 45 days after initiation of the selection process. In spite of the short period of selection one leaf disk was almost bleached (FIG. 3D) and all of them were killed after 30 days. Under 10 mM betaine aldehyde selection, control untransformed samples were killed (turned black, 3G-1) whereas transgenic leaves produced new shoots (FIG. 3G, 2-4).

The subject of data set [2] is resistant tobacco clones. As to the kind of experiment: PCR screening of resistant clones for chloroplast integration. Details: species or system Nicotiana tabacum. An excerpt: Integration of a foreign gene into the chloroplast genome was confirmed by PCR screening of chloroplast transformants (FIG. 4). Primers were designed to eliminate mutants, nuclear integration and to determine whether the integration of foreign genes had occurred in the chloroplast genome at the directed site by homologous recombination. The strategy to distinguish between nuclear and chloroplast transgenic plants was to land one primer (3P) on the native chloroplast genome adjacent to the point of integration and the second primer (3M) on the aadA gene (FIG. 1). This primer set generated 1.6 kb PCR product in chloroplast transformants (FIG. 4). Because this product cannot be obtained in nuclear transgenic plants, the possibility of nuclear integration can be eliminated. […] The rest of the resistant shoots may be either escapes or nuclear transformants. […] In contrast, nearly 60% of the spectinomycin resistant clones were mutants. Other labs have recently reported as high as 90% mutants among spectinomycin resistant clones (Eibl et al. 1999; Sidorov et al. 1999).

Data set [3] deals with Tobacco (Nicotiana tabacum var. Petit Havana) leaf discs. Briefly: Selection of bombarded tobacco leaf discs on RMOP selection medium (chloroplast transformation with pLD-BADH). The class given is cell-based. Particulars: for time until resistant clones formed green shoots: after initiation of selection; for leaf discs responded / resistant shoots per responding leaf disk: bombarded leaf discs under selection; for average resistant shoots per plate: spectinomycin after 45 days; for resistant shoots regenerated overall: ten bombardments (spectinomycin), six bombardments (betaine aldehyde).
Text: Expression cassettes of the chloroplast integration vector contain the chimeric aadA gene and the BADH gene driven by the constitutive 16S rRNA promoter and regulated by the 3′ untranslated region of the plastid psbA gene. The chimeric aadA gene encoding aminoglycoside 3′ adenyltransferase confers spectinomycin resistance in chloroplasts enabling selection of the transformants on spectinomycin dihydrochloride. On the other hand, BADH converts the toxic betaine aldehyde in cells to glycine betaine. When present, this pathway is compartmentalized within chloroplasts (Nuccio, et al. 1999). To facilitate translation of the dicistronic mRNA, independent Shine-Dalgarno (SD) sequences were provided to the aadA and BADH genes upstream of the initiation codons. In order to accurately compare transformation efficiency of both selectable markers under identical bombardment and transformation conditions, aadA and BADH genes were inserted into the same vector, at the same site. Bombarded leaves were treated in identical manner except the addition of selection reagent.
Tobacco (Nicotiana tabacum var. Petit Havana) was grown aseptically by germination of seeds in MSO medium. This medium contains MS salts (4.3 g/liter), B5 vitamin mixture (myoinositol, 100 mg/liter; thiamine-HCl, 10 mg/liter; nicotinic acid, 1 mg/liter; pyridoxine-HCl, 1 mg/liter), sucrose (30 g/liter) and phytagar (6 g/liter) at pH 5.8. Fully expanded, dark green leaves of about two month old plants were used for bombardment.
as §1, §2
When the leaf discs were selected for spectinomycin resistance, only 15% of the discs responded and an average of one resistant shoot per plate was observed after 45 days. From each callus, all resistant shoots are considered to represent an individual clone. Under betaine aldehyde selection 80% of the discs responded and an average of 25 resistant shoots per plate was observed. […]

The test system of a further data set is tobacco seeds. As to the kind of experiment: Seed germination on medium containing the selection agent. Format: in vivo, Nicotiana tabacum. An excerpt: Lack of pleiotropic effects. […] They grew normally, flowered and set seeds. […] […] This may be due to the presence of an active endogenous BADH or similar enzymatic activity in non-green plastids during germination.

Data set [4] concerns resistant tobacco clones. The note with it: Eibl et al. 1999; Sidorov et al. 1999; cited from earlier work.

For `C[N+](C)(C)CC=O` [betaine aldehyde], in data set [1] (10 mM betaine aldehyde), the “effect on untransformed leaf discs” value is reported as “death of untransformed leaf disc; also recorded: killed”. In data set [1] (Petit Havana control in RMOP with betaine aldehyde), the “time after which all control leaf disks were killed” value was found to be 30 days. Further, the “effect on leaf discs under selection” value in data set [1] was “growth of the leaf discs was completely inhibited and photosynthetic pigments were degraded”. Further, the “resistant clones with foreign genes integrated into the chloroplast genome (PCR)” value in the data set with resistant tobacco clones [2] (after the first culture cycle) is on record as 11 out of 15. In data set [3], the “entire process of regeneration, bombardment until transfer to soil” value was 2-3 months; the “time until resistant clones formed green shoots” value was not above 12 days; the leaf discs responded is 80%; the “resistant shoots per responding leaf disk” value is not above 23. In addition, in data set [3], the “average resistant shoots per plate” value is 25 and the “resistant shoots regenerated overall” value was “more than 150”. For the same molecule, the “efficiency of transformation relative to spectinomycin selection” value in data set [3] (betaine aldehyde vs spectinomycin selection) was 25 fold. Also, the “resistant shoots per responding leaf disk” value in data set [3] (listed as betain aldehyde) came out at 23. In addition, in the data set with tobacco seeds (betaine aldehyde 10-15 mM), the “germination of untransformed seeds” value is reported as “germinated”.

On to `CN[C@@H]1[C@H](O)[C@H](NC)[C@H]2O[C@@]3(O)C(=O)C[C@@H](C)O[C@H]3O[C@@H]2[C@H]1O` [Spectinomycin, spectinomycin dihydrochloride], for which the “effect on leaf discs under selection” value in data set [1] is reported as “leaf discs continued to grow but pigments were bleached”. Moreover, the “mutants among resistant clones” value with resistant tobacco clones [2] (applicant's clones) is approximately 60%. In addition, in data set [3], the “entire process of regeneration, bombardment until transfer to soil” value was 3-6 months; the “time until resistant clones formed green shoots” value is listed as “about 45 days”; the leaf discs responded was 15%; the “average resistant shoots per plate” value is “one”. Besides, the “resistant shoots regenerated overall” value in data set [3] is 10. For the same molecule, the “mutants among resistant clones, other labs” value in the data set on resistant tobacco clones [4] is not above 90%. Besides, the “germination of seeds from chloroplast transgenic plants” value with tobacco seeds (MS medium, 500 μg/ml spectinomycin) is “germinated and grew normally”.
